Laboratory results: patent US9884126B2, “Anti-wall teichoic antibodies and conjugates” (priority 2013, dated 2018)
In brackets after ≈: the same amount, converted by molar mass. Entries after “also recorded” stand apart in the source; their conditions may differ.

What was measured:
[1] = test system: USA300 strain of MRSA (NRS384); assay: In vitro macrophage assay (intracellular killing of opsonized MRSA); type: cell-based, Staphylococcus aureus; conditions: for Macrophage assay activity: in vitro macrophage assay (Example 18), grades 0, weak, 1+ not defined; for CFU/well after treatment: 100 μg/mL, reduced from 10,000 CFU/well
Experimental: (§1) Peritoneal macrophages were isolated from the peritoneum of 6-8 week old Balb/c mice (Charles River Laboratories, Hollister, Calif.). To increase the yield of macrophages, mice were pre-treated by intraperitoneal injection with 1 mL of thioglycolate media (Becton Dickinson). The thioglycolate media was prepared at a concentration of 4% in water, sterilized by autoclaving, and aged for 20 days to 6 months prior to use. Peritoneal macrophages were harvested 4 days post treatment with thioglycolate by washing the peritoneal cavity with cold phosphate buffered saline. Macrophages were plated in Dulbecco's Modified Eagle Medium (DMEM) supplemented with 10% Fetal Calf Serum, and 10 mM HEPES, without antibiotics, at a density of 4×10^5 cells/well in 24 well culture dishes. Macrophages were cultured over night to permit adherence to the plate. This assay was also utilized to test intracellular killing in non-phagocytic cell types. MG63 (CRL-1427) and A549 (CCL185) cell lines were obtained from ATCC and maintained in RPMI 1640 tissue culture media supplemented with 10 mM Hepes and 10% Fetal Calf Serum (RPMI-10). HUVEC cells were obtained from Lonza and maintained in EGM Endothelial Cell Complete Media (Lonza, Walkersville, Md.).

[2] = test system: MRSA (NRS384 strain of USA300); assay: MIC determination / killing of intracellular bacteria in mouse peritoneal macrophages; type: cell-based, Staphylococcus aureus; conditions: for killing of intracellular MRSA sequestered inside macrophages: doses including clinically achieveable serum levels
[3] = test system: MRSA (USA300 strain); assay: Intracellular killing in macrophages and non-phagocytic cell types (MG63, A549, HUVEC); type: cell-based, Staphylococcus aureus; conditions: 50 μg/mL, macrophages
Description: MRSA is able to invade a number of non-phagocytic cell types including osteoblasts and various epithelial and endothelial cell types (Garzoni and Kelly, (2008) Trends in Microbiology). MRSA is able to infect an osteoblast cell line (MG63), an airway epithelial cell line (A549) and primary cultures of human umbilical vein endothelial cells (HUVEC). […] The dashed line indicates the limit of detection for the assay.
as §1, with “MG63 (CRL-1427) and A549 (CCL185) cell lines were obtained from ATCC and maintained in RPMI 1640 tissue culture media supplemented with 10 mM Hepes and 10% Fetal Calf Serum (RPMI-10). HUVEC cells were obtained from Lonza and maintained in EGM Endothelial Cell Complete Media (Lonza, Walkersville, Md.).” left out

[4] = test system: MRSA (USA300); assay: Peritonitis model (intraperitoneal infection); type: in vivo, A/J mice; conditions: 50 mg/Kg thirty minutes after infection; 2 days
Description: An in vivo peritonitis model in mice was established to test the efficacy of AAC. In this model, mice are infected by intraperitoneal injection (I.P.) of MRSA and the bacterial load is monitored 2 days after infection in the peritoneal fluid and kidney. Bacteria harvested from the peritoneum could be found either as free floating extracellular bacteria or internalized inside peritoneal cells—primarily neutrophils and macrophages—that are recruited to the site of the infection.
Intraperitoneal infection model in A/J mice. Mice were infected with 5×10^7 CFU of MRSA by intraperitoneal injection and treated with 50 mg/Kg of S4497 antibody alone or with 50 mg/Kg of the S4497-pipBOR AAC 102 by intraperitoneal injection (protocol 11-2032A). Mice were sacrificed 2 days post infection and the total bacterial load was assessed in the peritoneal supernatant (Extracellular bacteria), peritoneal cells (Intracellular bacteria) or in the kidney.
A/J mice were infected with USA300 and administered 50 mg/Kg of either S4497 antibody or S4497-pipBOR AAC 102 thirty minutes after infection. After 2 days, the mice were sacrificed and bacterial loads were monitored in the peritoneal wash and the kidney. To distinguish between extracellular and intracellular bacteria, the peritoneal wash was centrifuged gently to separate the supernatant, containing extracellular bacteria, and the peritoneal cells. […]

[5] = test system: MRSA (USA300 strain); assay: Intravenous infection model in A/J mice; type: in vivo
[6] = test system: MRSA; assay: Cathepsin release / growth inhibition assay; type: cell-based, S. aureus; conditions: overnight culture, up to 10 μg/mL of AAC
Experimental: An AAC comprising antibody rF1, which binds to a family of cell wall associated proteins was conjugated to a rifamycin derivative. S. aureus (Newman strain) was treated with various doses of the rF1-AAC or with equivalent doses of either antibody alone, rifampicin alone or a mixture of antibody and free rifampicin to permit antibody binding to the bacteria (opsonization) and after 1 hour incubation the opsonized bacteria were fed to macrophages (FIG. 7A).
See: page 863 of Dubowchik et al (2002) Bioconj. Chem. 13:855-869, incorporated by reference for the purposes of this assay. Cathepsin B (from bovine spleen, SIGMA C7800) was added at 10 μg/mL and the samples were incubated for 1 hour at 37° C. As a control, AAC were incubated in buffer alone. The reaction was stopped by addition of 10 volumes of bacterial growth media, Tryptic Soy Broth pH 7.4 (TSB). To estimate the total release of active antibiotic, serial dilutions of the reaction mixture were made in quadruplicate in TSB in 96 well plates and the USA300 strain of S. aureus was added to each well at a final density of 2×10^3 CFU/mL. The cultures were incubated over night at […] with shaking and bacterial growth was measured by reading absorbance at 630 nm using a plate reader.

[7] = test system: MRSA (NRS384 strain of USA300); assay: MIC determination for extracellular bacteria; type: cell-based; conditions: Staphylococcus aureus, read-out: Extracellular MRSA MIC
Experimental: Dilutions of the antibiotic were made in quadruplicate in 96 well culture dishes. MRSA (NRS384 strain of USA300) was taken from an exponentially growing culture and diluted to 1×10^4 CFU/mL. Bacteria was cultured in the presence of antibiotic for 18-24 hours with shaking at 37° C. and bacterial growth was determined by reading the Optical Density (OD) at […]. The MIC was determined to be the dose of antibiotic that inhibited bacterial growth by >90%.

[8] = test system: MRSA; assay: Intravenous infection model, established infection in CB17.SCID mice; type: in vivo; conditions: treated 1 day after infection; AAC 50 mg/Kg, antibiotic 0.5 mg/Kg; kidneys day 4
Experimental: Mice were treated with the AAC 30 minutes after infection. To better replicate conditions likely to occur in MRSA patients seeking treatment, it was determined whether the AAC is effective at clearing an established infection and that linking of the antibiotic to an anti-S. aureus antibody provides a definite advantage over treatment with antibiotic alone. To this end, the efficacy of AAC with an equivalent dose of the antibiotic dimethyl-pipBOR was compared.
One day after infection, the mice were treated with 50 mg/Kg of S4497 antibody, 50 mg/Kg of S4497 dimethyl-pipBOR AAC 105 or with 0.5 mg/Kg of dimethyl-pipBOR antibiotic 7, the equivalent dose of antibiotic that is contained in 50 mg/Kg of AAC). Mice were sacrificed 4 days after infection and the total number of surviving bacteria per mouse (2 kidneys pooled) was determined by plating.
7 week old female mice were used for all in vivo experiments and infections were carried out by intravenous injection into the tail vein. A/J mice (Jackson Lab) were infected with a dose of 2×10^6 CFU. Balb/c mice (Charles River Laboratories, Hollister, Calif.) were infected with a dose of 2×10^7 CFU. […] The total number of bacteria recovered per mouse (2 kidneys) was determined by plating serial dilutions of the tissue homogenate in PBS 0.05% Tween on Tryptic Soy Agar with 5% defibrinated sheep blood.

Row | Compound | Macrophage assay activity [1] | other results
1 | thio-S4497-v8-LC-V205C-(azithromycin) [AAC 121] | 0 | –
2 | piperidyl benzoxazino rifamycin [pipBOR] | – | killing of intracellular MRSA as free antibiotics relative to rifampicin [2]: more potent than rifampicin
3 | thio-S4497-HC-A118C-MC-vc-PABC-(teicoplanin) [AAC 108] | weak | CFU/well after treatment [1]: about 500 CFU/well
4 | thio-S4497-v8-LC-cys-MC-vc-PAB-(nosiheptide) [AAC 149] | 0 | –
5 | CC(=O)NC[C@H]1CN(c2ccc(N3CCOCC3)c(F)c2)C(=O)O1 [Linezolid] | – | killing of intracellular MRSA sequestered inside macrophages [2]: failed to kill
6 | thio-S4497-HC-A118C-MC-vc-PABC-(pipBOR) [S4497-pipBOR AAC 102] | – | intracellular killing of MRSA [3]: effectively killed; clearance of infection (peritoneal wash and kidney) [4]: cleared the infection to below the limit of detection; efficacy at 50 mg/Kg (kidney bacterial load) ([5]; 50 mg/Kg IV 30 minutes post infection, kidneys 4 days post infection): cleared the infection in all of the mice tested; also recorded: effective; efficacy at lower doses ([5]; doses below 50 mg/Kg down to 2 m/Kg, 30 minutes after infection): only partially efficacious; inhibition of bacterial growth by AAC not pre-treated with cathepsin B [6]: did not result in inhibition of bacterial growth
7 | thio-S4497-HC-A118C-MC-vc-PAB-(triclosan) [AAC 109] | 0 | –
8 | thio-S4497 WT (V8), LC V205C-(thiostrepton) [AAC 128] | 0 | –
9 | thio-S4497-HC-A118C-MC-vc-PAB-(retapamulin) [AAC 103] | 0 | –
10 | thio-S4497-HC-A118C-MC-vc-PABC-(sitafloxacin) [AAC 107] | weak | CFU/well after treatment [1]: about 5,000 CFU/well
11 | CCCCCCCCCC(=O)N[C@@H](Cc1c[nH]c2ccccc12)C(=O)N[C@H](CC(N)=O)C(=O)N[C@@H](CC(=O)O)C(=O)N[C@@H]1C(=O)NCC(=O)N[C@@H](CCCN)C(=O)N[C@@H](CC(=O)O)C(=O)N[C@H](C)C(=O)N[C@@H](CC(=O)O)C(=O)NCC(=O)N[C@H](CO)C(=O)N[C@@H]([C@H](C)CC(=O)O)C(=O)N[C@@H](CC(=O)c2ccccc2N)C(=O)O[C@@H]1C [Daptomycin] | – | MIC [7]: 4 µg/mL (≈ 2.47 µM); MIC ([2]; Staphylococcus aureus, 24 h, MRSA inside mouse peritoneal macrophages, […]): > 100 µg/mL; killing of intracellular MRSA sequestered inside macrophages [2]: failed to kill
12 | thio-S4497-HC-A118C-MC-vc-PABC-(ampicillin) [AAC 113] | 0 | –
13 | thio-S4497-HC-A118C-MC-vc-PABC-(GSK-2140944) [AAC 105] | 0 | –
14 | thio-S4497-v8-LC-V205C-(thiostrepton) [AAC 141] | 0 | –
15 | thio-S4497-HC-A118C-MC-vc-PAB-(novobiocin) [AAC 102] | 0 | –
16 | thio-S4497-HC-A118C-MC-vc-PAB-(clindamycin) [AAC 101] | 0 | –
17 | CO[C@H]1/C=C/O[C@@]2(C)Oc3c(C)c(O)c4c(=O)c(c5oc6cc(N7CCC(N(C)C)CC7)cc(O)c6nc-5c4c3C2=O)NC(=O)/C(C)=C\C=C\[C@H](C)[C@H](O)[C@@H](C)[C@@H](O)[C@@H](C)[C@H](OC(C)=O)[C@@H]1C [dimethyl-pipBOR, dimethylpiperidyl benzoxazino rifamycin] | – | killing of intracellular MRSA as free antibiotics relative to rifampicin [2]: more potent than rifampicin; efficacy against established infection [8]: failed to clear the infection
18 | thio-S4497-HC-A118C-MC-vc-PABC-(daptomycin) [AAC 104] | 0 | –
19 | thio-S4497-v8-LC-V205C-MC-vc-PABC-(teicoplanin) [AAC 140] | 0 | –
